Laboratory results from patent US20230265151A1, “GIP/GLP1 CO-AGONIST COMPOUNDS” (priority 2020, published 2023).
Like-named read-outs stand apart in the source and are kept apart here. *1 amine or outer side, *2 acyl side, *3 side chain or, on linkers, in order; H or OH if unused. Where a SMILES comes first, the peptide text is derived from it. Side-chain parts run from the residue outwards. [ ]: non-standard residue; d: D form. The star is where a group is joined. Decanoyl(10-(4-HOOC-PhO)) = O=C(O)c1ccc(OCCCCCCCCCC(=O)*)cc1; αMePhe(2-F) = C[C@](N)(Cc1ccccc1F)C(=O)O; γGlu = O=C(O)[C@H](CCC(=O)[*:2])N[*:1]; αMeY = C[C@](N)(Cc1ccc(O)cc1)C(=O)O; 4Pal = N[C@@H](Cc1ccncc1)C(=O)O; αMeL = CC(C)C[C@](C)(N)C(=O)O; Orn = NCCC[C@H](N)C(=O)O; AEEA = NCCOCCOCC(=O)O; Aib = CC(C)(N)C(=O)O

Assays:
Type in all cases: cell-based
hGIPR = molecular target: T1, hGIPR (Homo sapiens, UniProt P48546); test: Functional cAMP formation (HTRF) in HEK-293 clonal cells expressing hGIPR, 0.1% bovine casein, without or with 1.0% human serum albumin; details: for Emax: percent of maximal response to GIP(1-42)NH2; for EC50: cAMP, 0.1% bovine casein (no human serum albumin), geometric mean
T1 construct: expressed in transfected cells
T1 sequence (P48546 22-466): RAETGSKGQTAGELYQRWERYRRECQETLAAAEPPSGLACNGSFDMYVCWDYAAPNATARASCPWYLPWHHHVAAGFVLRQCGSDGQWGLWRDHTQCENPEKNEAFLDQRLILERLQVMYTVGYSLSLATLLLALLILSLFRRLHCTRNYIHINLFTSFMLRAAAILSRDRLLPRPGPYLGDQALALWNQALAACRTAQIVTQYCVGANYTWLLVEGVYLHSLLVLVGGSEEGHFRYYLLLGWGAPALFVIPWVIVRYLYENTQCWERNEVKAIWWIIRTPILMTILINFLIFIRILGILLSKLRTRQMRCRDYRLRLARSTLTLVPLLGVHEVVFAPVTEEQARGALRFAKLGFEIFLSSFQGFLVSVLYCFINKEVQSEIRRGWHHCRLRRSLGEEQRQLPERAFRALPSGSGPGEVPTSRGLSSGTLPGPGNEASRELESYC
In short: (§1)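 Readings of the HTRF 665/620 nm ratio, which falls as cAMP rises, were converted to nM cAMP using a standard curve after 30 min peptide exposure at 37° C.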

hGLP-1R = hGLP-1R (Homo sapiens, UniProt P43220); test: Functional cAMP formation (HTRF) in HEK-293 clonal cells expressing hGLP-1R, 0.1% bovine casein, without or with 1.0% human serum albumin; set-up: expressed in transfected cells; details: for EC50: geometric mean
hGLP-1R, sequence (P43220 24-463): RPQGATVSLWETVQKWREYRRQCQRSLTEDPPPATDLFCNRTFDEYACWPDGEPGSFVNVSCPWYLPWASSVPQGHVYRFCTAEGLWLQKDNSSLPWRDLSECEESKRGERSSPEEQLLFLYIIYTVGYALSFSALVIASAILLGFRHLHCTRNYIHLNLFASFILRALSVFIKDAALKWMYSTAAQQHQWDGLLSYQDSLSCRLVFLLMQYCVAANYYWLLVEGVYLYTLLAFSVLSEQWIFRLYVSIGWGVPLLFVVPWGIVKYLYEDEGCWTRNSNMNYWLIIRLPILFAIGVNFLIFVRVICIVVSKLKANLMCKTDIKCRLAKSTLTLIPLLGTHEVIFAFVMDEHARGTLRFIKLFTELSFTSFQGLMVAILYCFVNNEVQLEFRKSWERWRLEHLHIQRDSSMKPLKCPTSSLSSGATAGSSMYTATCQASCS
In short: as §1

hGCGR = molecular target: T2, hGCGR (Homo sapiens, UniProt P47871); test: Functional cAMP formation (HTRF) in HEK-293 clonal cells expressing hGCGR, 0.1% bovine casein, without or with 1.0% human serum albumin
T2 construct: expressed in transfected cells
T2 sequence (P47871 26-477): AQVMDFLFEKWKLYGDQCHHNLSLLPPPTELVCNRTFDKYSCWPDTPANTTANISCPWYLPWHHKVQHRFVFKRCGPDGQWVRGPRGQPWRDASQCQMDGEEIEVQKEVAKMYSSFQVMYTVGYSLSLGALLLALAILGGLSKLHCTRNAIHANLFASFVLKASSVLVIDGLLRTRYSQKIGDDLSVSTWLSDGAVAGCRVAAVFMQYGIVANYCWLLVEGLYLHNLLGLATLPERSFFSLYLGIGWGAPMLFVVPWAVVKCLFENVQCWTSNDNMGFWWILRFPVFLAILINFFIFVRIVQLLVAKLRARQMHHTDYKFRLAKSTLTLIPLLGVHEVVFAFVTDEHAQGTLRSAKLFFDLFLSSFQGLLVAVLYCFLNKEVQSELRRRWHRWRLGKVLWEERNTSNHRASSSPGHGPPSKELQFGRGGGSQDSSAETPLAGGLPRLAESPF
In short: as §1

[1] = HEK293, read-out: hGIPR Emax, % ± SEM, cAMP, 37° C., 0.1% bovine casein and 1.0% human serum albumin
[2] = HEK293, read-out: hGIPR Emax, % ± SEM, cAMP, 37° C., 0.1% bovine casein, arithmetic mean
[3] = hGIPR EC50, nM (SEM, n), 37° C.
[4] = hGLP-1R EC50, nM (SEM, n), cAMP, 37° C., 0.1% bovine casein (no human serum albumin)
[5] = hGCGR EC50, nM (SEM, n), cAMP, 37° C., 0.1% bovine casein (no human serum albumin), geometric mean
[6] = hGCGR EC50, nM (SEM, n), cAMP, 37° C., 0.1% bovine casein and 1.0% human serum albumin, geometric mean (SEM, n)

SMILES: CC[C@H](C)[C@H](NC(=O)[C@H](CC(C)C)NC(=O)[C@](C)(Cc1ccc(O)cc1)NC(=O)[C@@H](CCC(=O)O)NC(=O)[C@@H](NC(=O)[C@H](Cc1ccccc1)NC(=O)[C@H](CCCCNC(=O)COCCOCCNC(=O)COCCOCCNC(=O)CCCCCCCCCOc1ccc(C(=O)O)cc1)NC(=O)C(C)(C)NC(=O)[C@H](CCC(N)=O)NC(=O)[C@H](C)NC(=O)[C@H](CCCCNC(=O)COCCOCCNC(=O)COCCOCCNC(=O)CCCCCCCCCOc1ccc(C(=O)O)cc1)NC(=O)[C@H](CCCN)NC(=O)[C@H](CC(=O)O)NC(=O)[C@H](CC(C)C)NC(=O)[C@](C)(CC(C)C)NC(=O)[C@@H](NC(=O)C(C)(C)NC(=O)[C@H](Cc1ccncc1)NC(=O)[C@H](CC(=O)O)NC(=O)[C@H](CO)NC(=O)[C@@H](NC(=O)[C@](C)(Cc1ccccc1F)NC(=O)[C@@H](NC(=O)CNC(=O)[C@H](CCC(=O)O)NC(=O)C(C)(C)NC(=O)[C@@H](N)Cc1ccc(O)cc1)[C@@H](C)O)[C@@H](C)O)[C@@H](C)CC)[C@@H](C)CC)C(=O)N[C@@H](CCC(=O)O)C(=O)NCC(=O)NCC(=O)N1CCC[C@H]1C(=O)N[C@@H](CO)C(=O)N[C@@H](CO)C(=O)NCC(=O)N[C@@H](C)C(=O)N1CCC[C@H]1C(=O)N1CCC[C@H]1C(=O)N1CCC[C@H]1C(=O)N[C@@H](CO)C(N)=O [Example 392]
- Emax (hGIPR; [1]): 85.7%
- Emax (hGIPR; [2]): 94.4%
- EC50 (hGIPR; [3]): 0.0107 nM
- Emax (hGLP-1R; HEK293, read-out: hGLP-1R Emax, % ± SEM, cAMP, 37° C., 0.1% bovine casein, percent of maximal response to GLP-1(7-36)NH2, arithmetic mean): 97.9%
- EC50 (hGLP-1R; [4]): 0.521 nM
- EC50 (hGCGR; [5]): > 9950 nM
- EC50 (hGCGR; [6]): > 9950 nM

SMILES: CC[C@H](C)[C@H](NC(=O)[C@H](CCCN)NC(=O)[C@H](CC(=O)O)NC(=O)[C@H](CC(C)C)NC(=O)[C@](C)(CC(C)C)NC(=O)[C@@H](NC(=O)C(C)(C)NC(=O)[C@@H](NC(=O)[C@H](CC(=O)O)NC(=O)[C@H](CO)NC(=O)[C@@H](NC(=O)[C@](C)(Cc1ccccc1F)NC(=O)[C@@H](NC(=O)CNC(=O)[C@H](CCC(=O)O)NC(=O)C(C)(C)NC(=O)[C@@H](N)Cc1ccc(O)cc1)[C@@H](C)O)[C@@H](C)O)C(C)C)[C@@H](C)CC)C(=O)N[C@@H](C)C(=O)N[C@@H](CCC(N)=O)C(=O)NC(C)(C)C(=O)N[C@@H](CCCCNC(=O)COCCOCCNC(=O)COCCOCCNC(=O)CC[C@H](NC(=O)CCCCCCCCCCCCC(=O)O)C(=O)O)C(=O)N[C@@H](Cc1ccccc1)C(=O)N[C@H](C(=O)N[C@H](CCC(=O)O)C(=O)N[C@@](C)(Cc1ccc(O)cc1)C(=O)N[C@@H](CC(C)C)C(=O)N[C@H](C(=O)N[C@@H](CCCCNC(=O)COCCOCCNC(=O)COCCOCCNC(=O)CC[C@H](NC(=O)CCCCCCCCCCCCC(=O)O)C(=O)O)C(=O)NCC(=O)NCC(=O)N1CCC[C@H]1C(=O)N[C@@H](CO)C(=O)N[C@@H](CO)C(=O)NCC(=O)N[C@@H](C)C(=O)N1CCC[C@H]1C(=O)N1CCC[C@H]1C(=O)N1CCC[C@H]1C(=O)N[C@@H](CO)C(N)=O)[C@@H](C)CC)[C@@H](C)CC [Example 329]
- Emax (hGIPR; HEK293, cAMP, 37° C., 0.1% bovine casein and 1.0% human serum albumin, read-out: hGIPR Emax, % ± SEM): 100%
- Emax (hGIPR; HEK293, cAMP, 37° C., 0.1% bovine casein, arithmetic mean, read-out: hGIPR Emax, % ± SEM): 109%
- EC50 (hGIPR; 37° C., read-out: hGIPR EC50, nM (SEM, n)): 0.015 nM
- Emax (hGLP-1R; HEK293, cAMP, 37° C., 0.1% bovine casein and 1.0% human serum albumin, percent of maximal response to GLP-1(7-36)NH2, read-out: hGLP-1R Emax, % ± SEM): 88.3%
- EC50 (hGLP-1R; cAMP, 37° C., 0.1% bovine casein (no human serum albumin), read-out: hGLP-1R EC50, nM (SEM, n)): 0.353 nM
- EC50 (hGCGR; cAMP, 37° C., 0.1% bovine casein (no human serum albumin), geometric mean, read-out: hGCGR EC50, nM (SEM, n)): > 9950 nM
- EC50 (hGCGR; cAMP, 37° C., 0.1% bovine casein and 1.0% human serum albumin, geometric mean (SEM, n), read-out: hGCGR EC50, nM (SEM, n)): > 9950 nM

SMILES: CC[C@H](C)[C@H](NC(=O)[C@H](CCCN)NC(=O)[C@H](CC(=O)O)NC(=O)[C@H](CC(C)C)NC(=O)[C@](C)(CC(C)C)NC(=O)[C@@H](NC(=O)C(C)(C)NC(=O)[C@H](Cc1ccncc1)NC(=O)[C@H](CC(=O)O)NC(=O)[C@H](CO)NC(=O)[C@@H](NC(=O)[C@](C)(Cc1ccccc1F)NC(=O)[C@@H](NC(=O)CNC(=O)[C@H](CCC(=O)O)NC(=O)C(C)(C)NC(=O)[C@@H](N)Cc1ccc(O)cc1)[C@@H](C)O)[C@@H](C)O)[C@@H](C)CC)C(=O)N[C@@H](C)C(=O)N[C@@H](CCC(N)=O)C(=O)NC(C)(C)C(=O)N[C@@H](CCCN)C(=O)N[C@@H](Cc1ccccc1)C(=O)N[C@H](C(=O)N[C@@H](CCCCNC(=O)COCCOCCNC(=O)COCCOCCNC(=O)CC[C@H](NC(=O)CCCCCCCCCOc1ccc(C(=O)O)cc1)C(=O)O)C(=O)N[C@@](C)(Cc1ccc(O)cc1)C(=O)N[C@@H](CC(C)C)C(=O)N[C@H](C(=O)N[C@@H](CCCCNC(=O)COCCOCCNC(=O)COCCOCCNC(=O)CC[C@H](NC(=O)CCCCCCCCCOc1ccc(C(=O)O)cc1)C(=O)O)C(=O)NCC(=O)NCC(=O)N1CCC[C@H]1C(=O)N[C@@H](CO)C(=O)N[C@@H](CO)C(=O)NCC(=O)N[C@@H](C)C(=O)N1CCC[C@H]1C(=O)N1CCC[C@H]1C(=O)N1CCC[C@H]1C(=O)N[C@@H](CO)C(N)=O)[C@@H](C)CC)[C@@H](C)CC [Example 354] (H-Y[Aib]EGT[αMePhe(2-F)]TSD[4Pal][Aib]I[αMeL]LD[Orn]IAQ[Aib][Orn]FIK([AEEA-AEEA-γGlu-Decanoyl(10-(4-HOOC-PhO))])[αMeY]LIK([AEEA-AEEA-γGlu-Decanoyl(10-(4-HOOC-PhO))])GGPSSGAPPPS-NH2)
- Emax (hGIPR; [1]): 67.5%
- Emax (hGIPR; [2]): 95.4%
- EC50 (hGIPR; [3]): 0.0249 nM
- Emax (hGLP-1R; HEK293, read-out: hGLP-1R Emax, % ± SEM, cAMP, 37° C., 0.1% bovine casein and 1.0% human serum albumin, percent of maximal response to GLP-1(7-36)NH2): 95.9%
- EC50 (hGLP-1R; [4]): 0.505 nM
- EC50 (hGCGR; [5]): > 9950 nM
- EC50 (hGCGR; [6]): > 9950 nM

SMILES: CC[C@H](C)[C@H](NC(=O)[C@H](CC(C)C)NC(=O)[C@](C)(Cc1ccc(O)cc1)NC(=O)[C@@H](CCC(=O)O)NC(=O)[C@@H](NC(=O)[C@H](Cc1ccccc1)NC(=O)[C@H](CCCCNC(=O)COCCOCCNC(=O)COCCOCCNC(=O)CC[C@H](NC(=O)CCCCCCCCCOc1ccc(C(=O)O)cc1)C(=O)O)NC(=O)C(C)(C)NC(=O)[C@H](CCC(N)=O)NC(=O)[C@H](C)NC(=O)[C@H](CCCCNC(=O)COCCOCCNC(=O)COCCOCCNC(=O)CC[C@H](NC(=O)CCCCCCCCCOc1ccc(C(=O)O)cc1)C(=O)O)NC(=O)[C@H](CCCN)NC(=O)[C@H](CC(=O)O)NC(=O)[C@H](CC(C)C)NC(=O)[C@](C)(CC(C)C)NC(=O)[C@@H](NC(=O)C(C)(C)NC(=O)[C@H](Cc1ccc(O)cc1)NC(=O)[C@H](CC(=O)O)NC(=O)[C@H](CO)NC(=O)[C@@H](NC(=O)[C@](C)(Cc1ccccc1F)NC(=O)[C@@H](NC(=O)CNC(=O)[C@H](CCC(=O)O)NC(=O)C(C)(C)NC(=O)[C@@H](N)Cc1ccc(O)cc1)[C@@H](C)O)[C@@H](C)O)[C@@H](C)CC)[C@@H](C)CC)C(=O)N[C@@H](CCC(=O)O)C(=O)NCC(=O)NCC(=O)N1CCC[C@H]1C(=O)N[C@@H](CO)C(=O)N[C@@H](CO)C(=O)NCC(=O)N[C@@H](C)C(=O)N1CCC[C@H]1C(=O)N1CCC[C@H]1C(=O)N1CCC[C@H]1C(=O)N[C@@H](CO)C(N)=O [Example 236]
- Emax (hGIPR; HEK293, read-out: hGIPR Emax, % ± SEM, 0.1% bovine casein and 1.0% human serum albumin, 37° C.): 80.5%
- EC50 (hGIPR; hGIPR EC50, nM (SEM, n), incubated at 37° C.): 0.0154 nM
- Emax (hGLP-1R; HEK293, read-out: hGLP-1R Emax, % ± SEM, 0.1% bovine casein and 1.0% human serum albumin, 37° C., percent of maximal response to GLP-1(7-36)NH2): 125%
- Emax (hGLP-1R; HEK293, read-out: hGLP-1R Emax, % ± SEM, percent of maximal response to GLP-1(7-36)NH2, 37° C., 0.1% bovine casein, arithmetic mean): 96.5%
- EC50 (hGLP-1R; hGLP-1R EC50, nM (SEM, n), 0.1% bovine casein and 1.0% human serum albumin, 37° C.): 32.6 nM
- EC50 (hGLP-1R; hGLP-1R EC50, nM (SEM, n), cAMP, incubated at 37° C., 0.1% bovine casein (no human serum albumin)): 0.336 nM
- EC50 (hGCGR; hGCGR EC50, nM (SEM, n), 0.1% bovine casein and 1.0% human serum albumin, 37° C., geometric mean): > 9950 nM
- EC50 (hGCGR; hGCGR EC50, nM (SEM, n), cAMP, incubated at 37° C., 0.1% bovine casein (no human serum albumin), geometric mean): > 9950 nM
